Test results as given in patent US20260297087A1, “Pyridoimidazolone Compounds, Preparation Thereof and Therapeutic Uses Thereof” (Sanofi, priority 2023, published 2026).

Key:
[1] = molecular target: T1, ERK5 (Homo sapiens, UniProt Q13164); assay: Inhibition of Cellular ERK5 Activity (cell-based assay, MEF2 luciferase reporter in SN12C cells); conditions: renal cancer cell line SN12C, doxycycline-induced MEKSDD, mean where repeated
T1 construct: MEF2-luciferase reporter
Experimental: (§1) Two assays were performed to assess the ERK5 inhibitory activity of compounds of the Examples, a cell-based assay and a cell-free biochemical assay. Where repeat measurements were taken, the value reported is a mean average.
The renal cancer cell line SN12C was transduced by a lentivirus pGreenFire1 MEF2 EF1 Neo (ref TR030VA-N) from SBI using standard infection protocol. pGreenFire1 MEF2 EF1 Neo allows the expression of luciferase gene under the control of minimal promoter with MEF2 transcriptional response elements. Cells harboring the reporter construct were selected by geneticin treatment. The selected cells were then transposed by a piggyback based plasmid pCM4007 allowing the expression of constitutively activated MEKSDD under control of TREG3 promoter, a doxycycline regulated promoter. Transposed cells were selected by puromycin treatment. Upon doxycycline treatment (1p g/ml) MEKSDD was expressed. MEKSDD activates ERK5 that phosphorylates MEF2C protein. Activated MEF2C protein can bind to its transcriptional response elements. Then the luciferase is expressed. In a 96-well plate (96F nuncleon refl37101 thermofisher), 50,000 cells were inoculated in 142.5 μl of RPMI medium containing 10% fetal calf serum, 1% glutamine, and 1 μg/ml doxycycline. After 24 hours, compounds were added in 7.5 μl culture medium (with 2% DMSO to give a final concentration of 0.1%) in order to obtain the desired concentration (0.3-1000 nM). The luciferase activity was measured using the Kit Bright Glo Luminescent Cell Assay Cat E2610 (Promega) according to the manufacturer's protocol. Luminescence was determined using 0.2 second reading/well using a Tecan SPARK. IC50 values were calculated using XLFIT5 for Microsoft Excel using method 205. The IC50 values represent the concentration of compound which inhibits the measurable luminescence signal by 50% as compared to DMSO-treated control cells.

[2] = molecular target: T2, ERK5 (activated catalytic domain) (Homo sapiens, UniProt Q13164); assay: Cell-Free Assay of ERK5 Inhibition (Time-Resolved FRET, 4EBP1 peptide phosphorylation); type: biochemical; conditions: ERK5 catalytic domain 4 nM, 1 mM ATP, 1 μM biotinylated 4EBP1 peptide, 30 min at 37° C.; mean where repeated; read-out: Cell-free assay (IC50 in nM)
T2 construct: purchased CarnaBiosciences 04-146
Experimental: as §1
An assay was performed to measure the capacity of each compound to inhibit ERK5 enzymatic activity. Compound potency was evaluated by Time-Resolved Forster Resonance Energy Transfer (FRET system). The activated catalytic domain of protein ERK5 (CarnaBiosciences #04-146) was mixed at 4 nM with varying concentrations of compound and incubated for 30 minutes at room temperature. A mixture of 1 mM ATP and 1 μM biotinylated synthetic peptide was added (Biosyntan GmbH). This synthetic peptide represents amino acids 30-52 of Eukaryotic translation initiation factor 4E-binding protein 1 (see, e.g., the sequence under accession No. NP_004086.1) biotinylated at the N-terminus. After 30 minutes at 37° C., the peptide phosphorylation by ERK5 was measured by addition of FRET reagents consisting of 12.5 μg/ml Streptavidin-XL665, 1 nM Anti-P-4EBP1 antibody and 300 ng/ml Anti-rabbit-K antibody. Following 90 minutes at room temperature fluorescent signals were read on the Pherastar FSX multimod detector from BMG Labtech (Exc° 340 nm, Em1 620 nm, Em2 665 nm). The IC50 values represent the concentration of compound which inhibits the measurable fluorescence signal by 50% as compared to the DMSO only control.

T1 sequence (Q13164 whole entry): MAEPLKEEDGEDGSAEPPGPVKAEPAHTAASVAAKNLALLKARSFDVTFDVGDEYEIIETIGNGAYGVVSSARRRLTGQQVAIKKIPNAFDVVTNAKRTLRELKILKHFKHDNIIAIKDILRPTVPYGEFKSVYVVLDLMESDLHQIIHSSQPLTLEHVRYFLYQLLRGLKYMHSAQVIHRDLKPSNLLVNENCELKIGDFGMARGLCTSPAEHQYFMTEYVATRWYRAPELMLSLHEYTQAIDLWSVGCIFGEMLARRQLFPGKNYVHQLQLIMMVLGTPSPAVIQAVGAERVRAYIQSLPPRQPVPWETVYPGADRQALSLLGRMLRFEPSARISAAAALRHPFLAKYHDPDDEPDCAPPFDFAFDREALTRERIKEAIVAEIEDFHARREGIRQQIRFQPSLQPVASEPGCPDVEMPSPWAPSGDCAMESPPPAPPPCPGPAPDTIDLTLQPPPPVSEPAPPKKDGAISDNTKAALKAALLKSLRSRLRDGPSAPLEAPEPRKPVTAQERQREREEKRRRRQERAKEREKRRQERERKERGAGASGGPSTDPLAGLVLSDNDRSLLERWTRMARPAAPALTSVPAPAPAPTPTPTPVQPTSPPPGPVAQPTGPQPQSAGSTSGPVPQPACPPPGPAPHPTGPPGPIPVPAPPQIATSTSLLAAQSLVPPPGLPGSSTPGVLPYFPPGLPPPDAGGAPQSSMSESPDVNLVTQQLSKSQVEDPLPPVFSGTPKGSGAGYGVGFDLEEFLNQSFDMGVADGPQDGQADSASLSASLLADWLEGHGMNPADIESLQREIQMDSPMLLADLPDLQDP
T2 sequence (Q13164 55-347 limits assumed): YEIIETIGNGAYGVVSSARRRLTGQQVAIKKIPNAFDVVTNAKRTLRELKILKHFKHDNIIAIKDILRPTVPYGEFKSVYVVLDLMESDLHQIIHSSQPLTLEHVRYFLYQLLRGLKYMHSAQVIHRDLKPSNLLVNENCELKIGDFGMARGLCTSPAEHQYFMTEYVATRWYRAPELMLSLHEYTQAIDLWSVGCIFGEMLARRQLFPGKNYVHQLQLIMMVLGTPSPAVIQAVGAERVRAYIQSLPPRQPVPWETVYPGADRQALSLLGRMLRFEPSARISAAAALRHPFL

Compound | IC50 [1] [nM] | IC50 [2] [nM]
CN1CCC(Oc2cnc3[nH]c(=O)n(C4CCN(C(=O)c5ccc(OC(F)(F)F)cc5N)CC4)c3c2)C1 (racemic) [Example 6, (rac)-1-[1-[2-amino-4-(trifluoromethoxy)benzoyl]-4-piperidyl]-6-(1-methylpyrrolidin-3-yl)oxy-3H-imidazo[4,5-b]pyridin-2-one] | 150 | 77
CN1CCC(Oc2cnc3[nH]c(=O)n(C4CCN(C(=O)c5ccc(OC(F)(F)F)cc5)CC4)c3c2)C1 (racemic) [Example 9, (rac)-6-(1-methylpyrrolidin-3-yl)oxy-1-[1-[4-(trifluoromethoxy)benzoyl]-4-piperidyl]-3H-imidazo[4,5-b]pyridin-2-one] | 413 | 287
O=C(c1ccc(OC(F)(F)F)cc1)N1CCC(n2c(=O)[nH]c3ncc(C4CCOC4)cc32)CC1 (racemic) [Example 15, (rac)-6-Tetrahydrofuran-3-yl-1-[1-[4-(trifluoromethoxy)benzoyl]-4-piperidyl]-3H-imidazo[4,5-b]pyridin-2-one] | 282 | 203
Nc1cc(OC(F)(F)F)ccc1C(=O)N1CCC(n2c(=O)[nH]c3ncc(C4CCOC4)cc32)CC1 (racemic) [Example 16, (rac)-1-[1-[2-Amino-4-(trifluoromethoxy)benzoyl]-4-piperidyl]-6-tetrahydrofuran-3-yl-3H-imidazo[4,5-b]pyridin-2-one] | 138 | 85
Nc1cc(OC(F)(F)F)ccc1C(=O)N1CCC(n2c(=O)[nH]c3ncc(C4CCNC(=O)C4)cc32)CC1 (racemic) [Example 22, (rac)-1-[1-[2-amino-4-(trifluoromethoxy)benzoyl]-4-piperidyl]-6-(2-oxo-4-piperidyl)-3H-imidazo[4,5-b]pyridin-2-one] | 140 | 684
Nc1cc(OC(F)(F)F)ccc1C(=O)N1CCC(n2c(=O)[nH]c3ncc(CC4CCOC4)cc32)CC1 (racemic) [Example 23, (rac)-1-[1-[2-amino-4-(trifluoromethoxy)benzoyl]-4-piperidyl]-6-(tetrahydrofuran-3-ylmethyl)-3H-imidazo[4,5-b]pyridin-2-one] | 184 | 86
Nc1cc(OC(F)(F)F)ccc1C(=O)N1CCC(n2c(=O)[nH]c3ncc(C4CCCO4)cc32)CC1 (racemic) [Example 25, (rac)-1-[1-[2-amino-4-(trifluoromethoxy)benzoyl]-4-piperidyl]-6-tetrahydrofuran-2-yl-3H-imidazo[4,5-b]pyridin-2-one] | 57 | 377
Nc1cc(OC(F)(F)F)ccc1C(=O)N1CCC(n2c(=O)[nH]c3ncc(C45CCNCC4C5)cc32)CC1 (racemic) [Example 28, (rac)-1-[1-[2-amino-4-(trifluoromethoxy)benzoyl]-4-piperidyl]-6-(3-azabicyclo[4.1.0]heptan-6-yl)-3H-imidazo[4,5-b]pyridin-2-one, 2,2,2-trifluoroacetic acid] |  | 533
Nc1cc(OC(F)(F)F)ccc1C(=O)N1CCC(n2c(=O)[nH]c3ncc(C45CCOCC4C5)cc32)CC1 (racemic) [Example 31, (rac)-1-[1-[2-amino-4-(trifluoromethoxy)benzoyl]-4-piperidyl]-6-(3-oxabicyclo[4.1.0]heptan-6-yl)-3H-imidazo[4,5-b]pyridin-2-one] | 170 | 288
Nc1cc(OC(F)(F)F)ccc1C(=O)N1CCC(n2c(=O)[nH]c3ncc(C45CCCCC4C5)cc32)CC1 (racemic) [Example 34, (rac)-1-[1-[2-amino-4-(trifluoromethoxy)benzoyl]-4-piperidyl]-6-norcaran-1-yl-3H-imidazo[4,5-b]pyridin-2-one] | 217 | 974
Nc1cc(OC(F)(F)F)ccc1C(=O)N1CCC(n2c(=O)[nH]c3ncc(C4CCCCO4)cc32)CC1 (racemic) [Example 38, (rac)-1-[1-[2-amino-4-(trifluoromethoxy)benzoyl]-4-piperidyl]-6-tetrahydropyran-2-yl-3H-imidazo[4,5-b]pyridin-2-one] | 541 | 1470
Nc1cc(OC(F)(F)F)ccc1C(=O)N1CCC(n2c(=O)[nH]c3ncc(C4CCCOC4)cc32)CC1 (racemic) [Example 40, (rac)-1-[1-[2-amino-4-(trifluoromethoxy)benzoyl]-4-piperidyl]-6-tetrahydropyran-3-yl-3H-imidazo[4,5-b]pyridin-2-one] | 168 | 291
Nc1cc(S(F)(F)(F)(F)F)ccc1C(=O)N1CCC(n2c(=O)[nH]c3ncc(C4CCOCC4)cc32)C1 (racemic) [Example 49, (rac)-1-[1-[2-amino-4-(pentafluoro-λ^6-sulfanyl)benzoyl]pyrrolidin-3-yl]-6-tetrahydropyran-4-yl-3H-imidazo[4,5-b]pyridin-2-one] | 278 | 587
O=C(c1ccc(OC(F)(F)F)cc1)N1CCC(n2c(=O)[nH]c3ncc([C@@H]4CCC[C@@H](O)CC4)cc32)CC1 (racemic) [Example 61, (rac)-trans-6-(4-hydroxycycloheptyl)-1-[1-[4-(trifluoromethoxy)benzoyl]-4-piperidyl]-3H-imidazo[4,5-b]pyridin-2-one] | 202 | 
O=C(c1ccc(OC(F)(F)F)cc1)N1CCC(n2c(=O)[nH]c3ncc([C@H]4CCC[C@@H](O)CC4)cc32)CC1 (racemic) [Example 62, (rac)-cis-6-(4-hydroxycycloheptyl)-1-[1-[4-(trifluoromethoxy)benzoyl]-4-piperidyl]-3H-imidazo[4,5-b]pyridin-2-one] | 257 | 
O=C1CCCC(c2cnc3[nH]c(=O)n(C4CCN(C(=O)c5ccc(OC(F)(F)F)cc5)CC4)c3c2)CC1 (racemic) [Example 63, (rac)-6-(4-oxocycloheptyl)-1-[1-[4-(trifluoromethoxy)benzoyl]-4-piperidyl]-3H-imidazo[4,5-b]pyridine-2-one] | 254 | 
O=C(c1ccc(OC(F)(F)F)cc1)N1CCC(n2c(=O)[nH]c3ncc([C@@H]4CCCC[C@@H](O)C4)cc32)CC1 (racemic) [Example 66, (rac)-trans-6-(3-hydroxycycloheptyl)-1-[1-[4-(trifluoromethoxy)benzoyl]-4-piperidyl]-3H-imidazo[4,5-b]pyridin-2-one] | 547 | 
O=C(c1ccc(OC(F)(F)F)cc1)N1CCC(n2c(=O)[nH]c3ncc([C@H]4CCCC[C@@H](O)C4)cc32)CC1 (racemic) [Example 67, (rac)-cis-6-(3-hydroxycycloheptyl)-1-[1-[4-(trifluoromethoxy)benzoyl]-4-piperidyl]-3H-imidazo[4,5-b]pyridin-2-one] | 358 | 
O=C(c1ccc(OC(F)(F)F)cc1)N1CCC(n2c(=O)[nH]c3ncc(C4CCCC(=NO)CC4)cc32)CC1 (single isomer, unassigned; isomer 1) [Example 64, (rac)-6-[(4E/Z)-4-hydroxyiminocycloheptyl]-1-[1-[4-(trifluoromethoxy)benzoyl]-4-piperidyl]-3H-imidazo[4,5-b]pyridin-2-one, Isomer 1] | 358 | 
O=C(c1ccc(OC(F)(F)F)cc1)N1CCC(n2c(=O)[nH]c3ncc(C4CCCC(=NO)CC4)cc32)CC1 (single isomer, unassigned; isomer 2) [Example 65, (rac)-6-[(4E/Z)-4-hydroxyiminocycloheptyl]-1-[1-[4-(trifluoromethoxy)benzoyl]-4-piperidyl]-3H-imidazo[4,5-b]pyridin-2-one, Isomer 2] | 575 | 
